Test results from US20070099841A1, “Prodrugs of T3 and T4 with enhanced bioavailability” (New River Pharmaceuticals Inc., priority 2005, published 2007).
Where “and” joins values, the source holds several entries; their conditions need not be identical. Identical values can stand only once. Like-named read-outs stand apart in the source and are kept apart here.

Experiments:
TSH = assay: Serum TSH after oral administration to hypothyroid rats (chemiluminescent immunoassay); type: in vivo, Sprague-Dawley rats; conditions: for TSH, mean: mean n=6, oral 12 μg/kg T3; for Individual animal TSH: individual animals 1-6, oral 12 μg/kg T3, hydrochloride salt
Method: (§1) T3 sodium, G-T3, V-T3, I-T3, Y-T3, A2-T3, P2-T3, or F2-T3 were administered at equimolar doses to Sprague-Dawley rats (12 μg/kg T3; HED˜120 μg T3 sodium; n=6, per group) that were hypothyroid due to removal of the thyroid gland approximately one week prior to evaluation. Serum was collected at 0 (pre-dose), 1, 2, 4, 6, 8 and 12 hours post-dose and analyzed for total T3 and TSH by chemiluminescent immunoassay (Immulite CIA). […] At 1 hour post dose the mean level of Total T3 was 327.3, 429.5, 432.7, 403.3, 431, and 433.1 ng/ml for G-T3, V-T3, I-T3, Y-T3, P2-T3, and F2-T3 dosed animals respectively as compared to 577 ng/ml for T3 sodium dosed animals. Applicants note that some variation in these values may be present as with A2-T3 (FIGS. 15 and 16).

[1] = design: species or system Sprague-Dawley rats; conditions: rat, in vivo
Method: Compounds were tested in Sprague-dawley rats (˜250 g). Defined doses were delivered as oral solutions in 0.5% sodium bicarbonate buffer with T3 sodium salt containing 12 mcgT3/kg or triiodothyronine composition containing the equivalent amount of T3. Rats were dosed immediately following 0 hour serum collection. Serum was collected from rats at 2, 4, 6, 9, 12 and 24 hours after capsule delivery. Total serum T3 concentrations were determined by ELISA using a commercially available kit (Total Triiodothyronine (total T3) ELISA KIT, product #1700, ALPHA DIAGNOSTIC, San Antonio, Tex.). Total serum T4 concentrations were determined by ELISA using a commercially available kit (Total Thyronine (Total T4) ELISA KIT, product #1100, ALPHA DIAGNOSTIC, San Antonio, Tex.).
The general procedures described above were employed for the experimental data described below. These procedures are subject to minor variations in timing and weight of rats, etc.
as §1

Compound | TSH, mean (TSH; 0 h (pre-dose)) [μIU] | TSH, mean (TSH; 1 h) [μIU] | TSH, mean (TSH; 2 h) [μIU] | TSH, mean (TSH; 4 h) [μIU] | TSH, mean (TSH; 6 h) [μIU] | TSH, mean (TSH; 8 h) [μIU] | TSH, mean (TSH; 12 h) [μIU] | TSH levels in response to administration (TSH; oral 12 μg/kg T3) | Total T3 AUC, % (of T3) [1] [%] | Total T3Δ dAUC, % (of T3) [1] [%] | Variability of T3 absorption compared with T3 sodium [1] | mean level of Total T3 at 1 hour post dose ([1]; po) [µg/mL] | further results
C[C@H](N)C(=O)N[C@@H](C)C(=O)N[C@@H](Cc1cc(I)c(Oc2ccc(O)c(I)c2)c(I)c1)C(=O)O [A2-T3] | 2.459 | 2.11 | 0.889 | 0.292 | 0.174 | 0.182 | 0.381 | decreased rapidly | 104.4 | 113.4 | – | – | –
N[C@@H](Cc1ccccc1)C(=O)N[C@@H](Cc1ccccc1)C(=O)N[C@@H](Cc1cc(I)c(Oc2ccc(O)c(I)c2)c(I)c1)C(=O)O [F2-T3] | 3.035 | 2.192 | 1.364 | 0.405 | 0.246 | 0.242 | 0.757 | decreased rapidly | 88.3 | 94.7 | decreased variability of T3 absorption | 0.4331 | –
Cl.NCC(=O)NC(Cc1cc(I)c(Oc2ccc(O)c(I)c2)c(I)c1)C(=O)O (centres unmarked) [G-T3, 2-(2-aminoacetoamido)-3-(4-(4-hydroxy-3-iodophenoxy)-3,5-diiodophenyl) propanoic acid, hydrochloride salt] | 2.021 | 2.098 | 1.289 | 0.292 | 0.162 | 0.151 | 0.427 | – | – | – | – | – | Individual animal TSH (TSH; 0 h (pre-dose)): 1.680 μIU and 2.584 μIU and 2.304 μIU and 1.956 μIU and 1.860 μIU and 1.740 μIU; Individual animal TSH (TSH; 1 h): 2.660 μIU and 2.564 μIU and 2.392 μIU and 1.960 μIU and 1.612 μIU and 1.400 μIU; Individual animal TSH (TSH; 2 h): 1.340 μIU and 1.472 μIU and 1.648 μIU and 1.160 μIU and 1.104 μIU and 1.008 μIU; Individual animal TSH (TSH; 4 h): 0.364 μIU and 0.352 μIU and 0.296 μIU and 0.216 μIU and 0.276 μIU and 0.248 μIU; Individual animal TSH (TSH; 6 h): 0.232 μIU and 0.172 μIU and 0.152 μIU and 0.112 μIU and 0.205 μIU and 0.100 μIU; Individual animal TSH (TSH; 8 h): 0.232 μIU and 0.172 μIU and 0.136 μIU and 0.124 μIU and 0.168 μIU and 0.076 μIU; Individual animal TSH (TSH; 12 h): 0.540 μIU and 0.612 μIU and 0.224 μIU and 0.548 μIU and 0.268 μIU and 0.372 μIU; TSH levels in response to administration (TSH; oral 12 μg/kg T3, hydrochloride salt): decreased rapidly; Tmax, % T3 ([1]; Sprague-Dawley): 125%; Total T3 AUC, % (of T3) ([1]; Sprague-Dawley): 88.1%; Total T3 AUClast, % T3 ([1]; Sprague-Dawley): 89%; Total T3 Cmax, % T3 ([1]; Sprague-Dawley): 79%; Total T3Δ AUClast, % T3 ([1]; Sprague-Dawley): 89%; Total T3Δ Cmax, % T3 ([1]; Sprague-Dawley): 78%; Total T3Δ dAUC, % (of T3) ([1]; Sprague-Dawley): 90.9%; Variability of T3 absorption compared with T3 sodium ([1]; Sprague-Dawley): decreased variability of T3 absorption; Release / absorption of T3 compared with T3 sodium ([1]; Sprague-Dawley, po): delayed release of T3; mean level of Total T3 at 1 hour post dose ([1]; Sprague-Dawley, po, 1 h): 0.3273 µg/mL
CC[C@H](C)[C@H](N)C(=O)N[C@@H](Cc1cc(I)c(Oc2ccc(O)c(I)c2)c(I)c1)C(=O)O [I-T3] | 2.331 | 2.218 | 1.203 | 0.351 | 0.169 | 0.131 | 0.271 | decreased rapidly | 96.6 | 100.8 | decreased variability of T3 absorption | 0.4327 | –
